Source: patent publication US11999770B2, “Peptides and nanoparticle formulations thereof” (University of Bradford, priority 2016, dated 2024)

Tests used:
MDA-MB-231 cells [1] = test: Cytotoxicity / cell viability (MTT assay); assay type: cell-based, human; settings: for activity against the proliferation of MDA MB-231 triple negative breast cancer cells: dosed as nanoparticles
Description: Cytotoxicity of an optimised peptide NP formulation (F18) containing peptide of SEQ ID NO: 5 was measured by assessing cell viability (MTT assay). The MDA-MB-231 cells were seeded in 24-well plates (Nalgen Nunc International, Ochester, NY) at a density of 5×10^4 cells per well and incubated for 24 hours to allow for 60-70% confluency and sufficient adhesion. The cells were treated with different concentrations of the peptide-loaded NP, free peptide (SEQ ID NO: 5) and blank NP. After 24, 48, 72 and 96 hours, the treated cells were washed with 500 μl PBS, and 500 μl of 15% MTT dye solution in complete media added to each well. The plates were incubated at 37° C. and 5% CO2 for an additional 3 hours. The supernatant was then discarded, 500 μl DMSO added and the solution vigorously mixed. The optical density of each well was measured at 570 nm (reference wavelength 630 nm) in a microplate reader (Fluostar Omega, BMG Lab Tech GMBH, Germany). This experiment was performed in triplicate and repeated three times. Mean values±SD for each concentration was determined. Percentage cell viability was determined as the ratio of absorbance (570 nm) in treated cells relative to the absorbance in control cells (570 nm). The absorbance of the untreated cells was set at 100%. The IC50 was defined as the concentration of sample needed to reduce the signal by 50% relative to the control.

A549 lung cancer cells = test: A549 lung cancer cell viability; assay type: cell-based, human; settings: dosed as nanoparticles
[2] = molecular target: T1, RanGDP-RCC1 protein-protein interaction (Homo sapiens, UniProt P18754); test: AlphaScreen assay; assay type: binding; settings: in the absence of GTP
T1 sequence (P18754 1-421): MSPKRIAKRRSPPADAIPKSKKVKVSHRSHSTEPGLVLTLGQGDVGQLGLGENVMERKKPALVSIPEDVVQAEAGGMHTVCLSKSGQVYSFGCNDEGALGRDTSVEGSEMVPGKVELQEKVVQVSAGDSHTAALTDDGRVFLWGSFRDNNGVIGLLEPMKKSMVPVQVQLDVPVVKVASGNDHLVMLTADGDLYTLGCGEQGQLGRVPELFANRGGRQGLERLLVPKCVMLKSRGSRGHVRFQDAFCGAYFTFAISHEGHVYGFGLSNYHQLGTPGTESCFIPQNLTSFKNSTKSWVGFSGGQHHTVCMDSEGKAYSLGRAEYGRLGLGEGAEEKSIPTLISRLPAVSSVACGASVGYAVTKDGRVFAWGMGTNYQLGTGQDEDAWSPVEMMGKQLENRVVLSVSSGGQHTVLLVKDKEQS
From the text: The direct effect of the inhibitor of SEQ ID NO: 5 on the RanGDP-RCC1 interaction was also studied by AlphaScreen™ assay. This assay employs bead-based chemistry used to study biomolecular interactions in a microplate format, the acronym ALPHA stands for Amplified Luminescent Proximity Homogeneous Assay. In brief, the system uses two photosensitive bead types, a first donor bead that can absorb light from an external light source and a second acceptor bead that can first absorb energy from the donor bead if the beads are in close proximity and then in turn emit light. The Ran protein was attached to the donor bead and the RCC1 protein was attached to the acceptor bead. In the absence of peptide inhibitor the interaction of Ran and RCC1 hold the beads in close proximity and the emission from the acceptor bead is detectable.

[3] = molecular target: T2, RanGDP-RCC1 protein-protein interaction (Homo sapiens, UniProt P18754); test: Ran activation assay (MDA MB-231 cell lysate, RanBP1 agarose beads); assay type: biochemical
T2 construct: endogenous in cells; host or cells: MDA MB-231 cell lysate
T2 sequence (P18754 2-421 limits assumed): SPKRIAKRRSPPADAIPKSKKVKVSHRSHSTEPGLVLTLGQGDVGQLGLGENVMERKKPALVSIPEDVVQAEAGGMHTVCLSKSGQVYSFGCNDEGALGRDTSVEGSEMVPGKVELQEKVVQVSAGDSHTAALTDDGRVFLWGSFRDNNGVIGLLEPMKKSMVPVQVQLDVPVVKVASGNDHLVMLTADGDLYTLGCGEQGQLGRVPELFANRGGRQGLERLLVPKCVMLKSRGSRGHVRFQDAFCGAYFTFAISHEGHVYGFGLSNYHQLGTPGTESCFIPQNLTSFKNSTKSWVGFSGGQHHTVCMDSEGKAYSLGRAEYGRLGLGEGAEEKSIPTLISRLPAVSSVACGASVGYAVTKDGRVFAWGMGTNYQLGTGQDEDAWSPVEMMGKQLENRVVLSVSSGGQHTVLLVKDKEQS
Description: Lane 1 is positive control for activated Ran complex & Lane 2, MDA MB-231 cell lysate, Lane 3 MDA MB-231 cell lysate loaded with GDP and incubated (negative control) with RanBP1 Agarose beads. Lane 4, MDA MB-231 cell lysate loaded with GTPyS (positive control) incubated with RanBP1 Agarose beads. Lane 5, MDA MB231 cell lysate treated by N-Terminal peptide, Lane 6, MDA MB-231 cell lysate loaded with GD and treated with N-terminal peptide SEQ ID NO: 5, Lane 7, MDA MB231 cell lysate loaded with GTPyS and treated with N-terminal peptide SEQ ID NO: 5 incubated with RanBP1 Agarose beads. […] It can therefore be seen that the N-terminal peptide SEQ ID NO: 5 disturbs the interaction between Ran-RCC1 by direct binding to RCC1.
In this figure, Lane 1 is positive control (activated Ran protein); Lane 2, MDA MB-231 cell lysate; Lane 3 MDA MB-231 cell lysate loaded with GDP and incubated (negative control) with RanBP1 Agarose beads; Lane 4, MDA MB-231 cell lysate loaded with GTPyS (positive control) incubated with RanBP1 Agarose beads; Lane 5, MDA MB-231 cell lysate treated by peptide of SEQ ID 5; Lane 6, MDA MB-231 cell lysate loaded with GD and treated with peptide of SEQ ID 5; and Lane 7, MDA MB-231 cell lysate loaded with GTPyS and treated with peptide of SEQ ID 5 incubated with RanBP1 Agarose beads.

MDA-MB231 invasion = test: MDA-MB231 invasion; assay type: cell-based, human; settings: loaded nanoparticles
MDA-MB231 migration = test: MDA-MB231 migration; assay type: cell-based, human; settings: loaded nanoparticles
MDA-MB-231 cells [4] = test: Cell cycle analysis (PI flow cytometry); assay type: cell-based, human
Description: To determine the effect of peptide (SEQ ID NO: 5)-loaded NP on cell growth, cultured cells were treated with the same doses of free peptide and peptide-loaded NP as used in the cell viability assay. After 24 and 48 hours of treatment, cells were suspended in PBS and fixed by addition of 70% ice-cold methanol. Cells were treated by adding RNase (1.0 μg ml^−1) to the samples and re-suspending in propidium iodide (PI) stain (5.0 μg ml^−1). PI fluorescence intensity was determined using flow cytometry through a FL-2A filter at 585 nm. Flow-cytometric data were analysed using Cyflogic (v.1.2.1) software. Quantification of apoptotic cells was determined by flow cytometry as the percentage of cells in the sub-G1 region (hypodiploidy) in cell cycle analysis as previously described [PLoS ONE, 6 (2011) e23640].

[5] = Isoelectric point of the peptide; assay type: physicochemical

inhibition of complex formation [2] [%]	Sequence	activity against the proliferation of MDA MB-231 triple negative breast cancer cells (MDA-MB-231 cells [1])	activity against the proliferation of A549 lung cancer cells (A549 lung cancer cells)	effect on Ran-GDP/RCC1 interaction (activated Ran pull-down) [3]	cytotoxic action (cell viability) (MDA-MB-231 cells [1]; 2, 4 and 8 μM, 24, 48, 72 and 96 hours)	effect on MDA-MB231 invasion (MDA-MB231 invasion)	effect on MDA-MB231 migration (MDA-MB231 migration)	growth rate of the cells (MDA-MB-231 cells [4])	isoelectric point (pI) [5]
	CVDIKDRKVKAKS [SEQ ID NO: 6, Ran positions 124 to 135 with N-terminal Cys]	significant activity	significant activity						
45	CAQGEPQVQFK [SEQ ID NO: 5]	significant activity	significant activity	disturbs the interaction between Ran-GDP and RCC1	no significant cytotoxicity	inhibitory effect	inhibitory effect	not affected	around 6.0
	CQYEHDLEVAQTTALP [SEQ ID NO: 7, Ran positions 196 to 210 with N-terminal Cys]	significant activity	significant activity						
